Assay results as given in US7256024B2, “Tyrissamycin antibiotic” (Bristol-Myers Squibb Company, priority 1998, dated 2007).

What was measured:
Solubility = assay type: physicochemical
Excerpt: A purified sample of tyrissamycin was isolated as a white amorphous powder. […] FIG. 3 (CD3OD) • ^13C-NMR: See FIG. 4 (CD3OD)

[1] = test system: Staphylococcus aureus strain SA1; assay: Well-agar diffusion biological assay; assay type: cell-based; conditions: sample 5 mg/ml; S. aureus SA1; 7 mm agar wells; fractions of final purification
Experimental: Assays for detection and evaluation of the antibacterial activity of tyrissamycin employ various strains of Staphylococcus aureus. The primary biological assay system consists of S. aureus strain SA1.
SA1 is grown at 37° C. overnight in Antibiotic Assay Broth (BBL, Cockeysville, Md.). The culture is centrifuged at 4000 rpm for 10 minutes and the medium is decanted. Cells are resuspended in 0.9% saline. The culture is adjusted to 25% transmission (600 nm wavelength) using a Coleman Junior Spectrophotometer. This 25% working cell suspension is stored at 4° C. for use as the assay inoculum.
All biological assays employ agar diffusion techniques. Assay agar is Seed Agar (BBL) supplemented after autoclaving with 4% of phosphate-nitrate buffer, pH 7.0, and 0.3% of a 2% solution of triphenyltetrazolium chloride. For well-agar diffusion assays, assay agar is seeded with 1% of the working cell suspension of SA1. The seeded agar is poured into Petri dishes or bioassay trays and allowed to harden. Wells (7 mm diameter) are cut in the agar, and 40 μl sample aliquots are added to the wells. (For some assays, 3 μl of sample are spotted directly on the surface of the agar). Plates are incubated at 37° C. for 18-24 hours, and zones of inhibition (if any) are measured. Inhibition zone sizes correlated with the activity of tyrissamycin in various samples.

[2] = test system: Staphylococcus haemolyticus; assay: MIC, microtiter dilution technique; assay type: cell-based; conditions: Mueller-Hinton broth, 37° C., 16-24 hours
Experimental: (§1) Tyrissamycin was evaluated in vitro to detemine the minimal inhibitory concentrations (MIC) against seven gram-positive bacteria using the microtiter dilution technique. This method is described by T. B. Conrath, “Handbook of Microtiter Procedures,” Dynatech Corp., Cambridge, Mass., USA (1972); and T. L. Gavan et al “Microdilution Test Procedures,” in Manual of Clinical Microbiology, E. H. Lennette, Ed., American Soc. for Microbiol., Washington, D.C., USA (1980). These tests are performed in accordance with procedures established by the National Committee on Clinical Laboratory Standards (NCCLS). The test procedure is as follows: Each well of a sterile 96-well microdilution tray is filled under aseptic conditions with 0.1 ml of Mueller-Hinton broth. A 0.05-ml sample of the test compound solution is added to a well in the first row of the tray. A microdilutor apparatus is used to simultaneously mix the contents of these wells and to transfer aliquots to each succeeding row of cells to obtain a range of serially diluted solutions. The last row of wells is untreated and serves as a control. Each well containing broth and test compound is inoculated with about ten microliters of inoculum of a given test microorganism. One well in the last row of wells (which is free of test compound) is not inoculated and is used as a sterility control. The trays are sealed and incubated at 37° C. for 16-24 hours.

Enterococcus faecium = assay: MIC, microtiter dilution technique; assay type: cell-based; conditions: Mueller-Hinton broth, 37° C., 16-24 hours
Experimental: as §1

Staphylococcus aureus = assay: MIC, microtiter dilution technique; assay type: cell-based; conditions: Mueller-Hinton broth, 37° C., 16-24 hours
Experimental: as §1

[3] = test system: Staphylococcus epidermidis; assay: MIC, microtiter dilution technique; assay type: cell-based; conditions: Mueller-Hinton broth, 37° C., 16-24 hours
Experimental: as §1

Enterococcus faecalis = assay: MIC, microtiter dilution technique; assay type: cell-based; conditions: Mueller-Hinton broth, 37° C., 16-24 hours
Experimental: as §1

Streptococcus pyogenes = assay: MIC, microtiter dilution technique; assay type: cell-based; conditions: Mueller-Hinton broth, 37° C., 16-24 hours
Experimental: as §1

Streptococcus pneumoniae = assay: MIC, microtiter dilution technique; assay type: cell-based; conditions: Mueller-Hinton broth, 37° C., 16-24 hours
Experimental: as §1

## tyrissamycin
Solubility; in chloroform
  Solubility: Soluble
Solubility; in dimethylsulfoxide (DMSO)
  Solubility: Soluble
Solubility; in methanol
  Solubility: Soluble
Solubility; in water
  Solubility: practically insoluble
[1]
  Inhibition Zone: 14.0 mm
[2]
  Minimal Inhibitory Concentration: 32 µg/mL
Enterococcus faecium
  Minimal Inhibitory Concentration: 64 µg/mL
Staphylococcus aureus
  Minimal Inhibitory Concentration: 32 µg/mL
[3]
  Minimal Inhibitory Concentration: 32 µg/mL
Enterococcus faecalis
  Minimal Inhibitory Concentration: 32 µg/mL
Streptococcus pyogenes
  Minimal Inhibitory Concentration: 4 µg/mL
Streptococcus pneumoniae
  Minimal Inhibitory Concentration: 4 µg/mL
